Data taken from ChEMBL document CHEMBL2150919, “Benzenesulfonyl and Benzenesulfonamide as Modulators of the 5-HT6 Receptor: Patent Highlight” (ACS Med Chem Lett, 2012).
pKi: −log10 of the molar value.

Molecular target: 5-hydroxytryptamine receptor 6 (Homo sapiens, UniProt P50406)
Assay: Displacement of [3H]-lysergic acid diethylamine from human recombinant 5-HT6 receptor

5-hydroxytryptamine receptor 6, sequence (P50406 whole entry): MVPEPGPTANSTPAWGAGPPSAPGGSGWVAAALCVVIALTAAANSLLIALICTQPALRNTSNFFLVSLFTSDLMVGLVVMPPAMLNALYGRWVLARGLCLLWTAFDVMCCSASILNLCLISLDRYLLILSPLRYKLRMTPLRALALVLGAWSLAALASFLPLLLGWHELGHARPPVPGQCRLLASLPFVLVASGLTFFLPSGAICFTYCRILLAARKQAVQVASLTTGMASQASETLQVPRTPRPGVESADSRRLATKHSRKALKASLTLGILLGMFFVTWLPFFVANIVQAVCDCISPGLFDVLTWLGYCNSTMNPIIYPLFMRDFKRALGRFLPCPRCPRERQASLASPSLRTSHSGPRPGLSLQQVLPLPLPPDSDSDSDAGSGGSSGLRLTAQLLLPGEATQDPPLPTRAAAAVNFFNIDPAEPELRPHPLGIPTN

Row | Structure (SMILES) | pKi
1 | COCc1cccc(NS(=O)(=O)c2ccc(C)c(N3CCNCC3)c2)c1 | > 8.00
2 | COCc1cccc(NS(=O)(=O)c2ccc(OC)c(N3CCNCC3)c2)c1 | > 8.00
3 | CCOc1ccc(S(=O)(=O)Nc2cccc(COC)c2)cc1N1CCNCC1 | > 8.00
4 | COCc1ccccc1NS(=O)(=O)c1ccc(OC)c(N2CCNCC2)c1 | > 8.00
5 | COc1ccc(S(=O)(=O)Nc2cccc(COCC(F)(F)F)c2)cc1N1CCNCC1 | > 8.00
6 | COc1ccc(S(=O)(=O)Nc2cccc(C(C)OC)c2)cc1N1CCNCC1 (stereo not drawn) | > 7.70
7 | COCc1cccc(N(C)S(=O)(=O)c2ccc(OC)c(N3CCNCC3)c2)c1 | > 7.00
8 | COCc1ccc(NS(=O)(=O)c2ccc(OC)c(N3CCNCC3)c2)cc1 | > 7.00
9 | COCc1ccccc1NS(=O)(=O)c1ccc(C)c(N2CCNCC2)c1 | > 7.00
10 | CCOc1ccc(S(=O)(=O)Nc2ccccc2COC)cc1N1CCNCC1 | > 8.00
11 | CCOc1ccc(S(=O)(=O)Nc2ccccc2COC)cc1N1CCN(C)CC1 | > 8.00
12 | COCc1ccccc1NS(=O)(=O)c1ccc(C)c(N2CCN(C)CC2)c1 | > 7.00

Other lines, results leading:

Row | pKi | Structure (SMILES)
13 | > 8.00 | CCOCc1cccc(NS(=O)(=O)c2ccc(OC)c(N3CCNCC3)c2)c1
14 | > 8.00 | COCc1cccc(NS(=O)(=O)c2ccc(OC)c(N3CCN(C)CC3)c2)c1
15 | > 7.70 | COCc1cccc(NS(=O)(=O)c2ccc(OC)c(N3CCCNCC3)c2)c1
16 | > 8.00 | CCOc1ccc(S(=O)(=O)Nc2cccc(COC)c2)cc1N1CCN(C)CC1
17 | > 7.00 | COCc1cccc(NS(=O)(=O)c2ccc(C)c(N3CCN(C)CC3)c2)c1
18 | > 8.00 | COCc1ccccc1NS(=O)(=O)c1ccc(OC)c(N2CCN(C)CC2)c1
